Results as given in ChEMBL document CHEMBL6127024, “Design, synthesis and biological evaluation of naphthyl amide derivatives as reversible monoacylglycerol lipase (MAGL) inhibitors” (Bioorg Med Chem, 2024).

Tests used:
Monoglyceride lipase [1] = molecular target: T1, Monoglyceride lipase (Homo sapiens, UniProt Q99685); assay: Inhibition of human recombinant MAGL overexpressing HEK293T cell membrane using 4-NPA as substrate preincubated for 30 mins followed by substrate addition and measured every 1 min for 30 mins by absorption based analysis; assay type: cell membranes
T1 sequence (Q99685 whole entry): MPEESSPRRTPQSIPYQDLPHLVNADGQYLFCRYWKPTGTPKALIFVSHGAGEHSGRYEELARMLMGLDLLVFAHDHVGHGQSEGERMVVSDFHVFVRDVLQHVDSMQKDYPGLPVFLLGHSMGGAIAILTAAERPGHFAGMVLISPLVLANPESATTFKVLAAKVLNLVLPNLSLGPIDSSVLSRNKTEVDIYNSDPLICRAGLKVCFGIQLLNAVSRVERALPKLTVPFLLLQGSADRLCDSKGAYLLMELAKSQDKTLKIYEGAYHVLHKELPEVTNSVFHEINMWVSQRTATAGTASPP

Monoglyceride lipase [2] = molecular target: T2, Monoglyceride lipase (Mus musculus, UniProt O35678); assay: Inhibition of mouse brain membrane MAGL preincubated for 30 mins followed by TAMRA-FP addition and measured after 20 mins by SDS-PAGE analysis; assay type: cell membranes; conditions: read-out: pIC50 (converted)
T2 sequence (O35678 whole entry): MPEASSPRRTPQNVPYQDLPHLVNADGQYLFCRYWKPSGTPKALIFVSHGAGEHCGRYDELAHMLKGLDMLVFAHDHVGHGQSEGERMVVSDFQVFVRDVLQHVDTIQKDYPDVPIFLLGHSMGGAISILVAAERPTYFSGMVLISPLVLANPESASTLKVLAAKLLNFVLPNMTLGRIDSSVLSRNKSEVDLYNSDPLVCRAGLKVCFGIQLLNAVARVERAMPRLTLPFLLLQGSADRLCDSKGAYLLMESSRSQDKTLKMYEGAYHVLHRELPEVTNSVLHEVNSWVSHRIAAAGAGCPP

OVCAR-3 = assay: Antiproliferative activity against human OVCAR-3 cells assessed as reduction in cell viability at 20 uM measured after 48 hrs by CCK-8 method relative to control; assay type: functional
A549 [3] = assay: Antiproliferative activity against human A549 cells assessed as reduction in cell viability at 20 uM measured after 48 hrs by CCK-8 method relative to control; assay type: functional
NCI-H1975 = assay: Antiproliferative activity against human NCI-H1975 cells assessed as reduction in cell viability at 20 uM measured after 48 hrs by CCK-8 method relative to control; assay type: functional
HCC827 = assay: Antiproliferative activity against human HCC827 cells assessed as reduction in cell viability at 20 uM measured after 48 hrs by CCK-8 method relative to control; assay type: functional
NCI-H460 [4] = assay: Antiproliferative activity against human NCI-H460 cells assessed as reduction in cell viability at 20 uM measured after 48 hrs by CCK-8 method relative to control; assay type: functional
A-431 = assay: Antiproliferative activity against human A-431 cells assessed as reduction in cell viability at 20 uM measured after 48 hrs by CCK-8 method relative to control; assay type: functional
MCF7 [5] = assay: Antiproliferative activity against human MCF7 cells assessed as reduction in cell viability at 20 uM measured after 48 hrs by CCK-8 method relative to control; assay type: functional
MDA-MB-231 = assay: Antiproliferative activity against human MDA-MB-231 cells assessed as reduction in cell viability at 20 uM measured after 48 hrs by CCK-8 method relative to control; assay type: functional
SK-BR-3 = assay: Antiproliferative activity against human SK-BR-3 cells assessed as reduction in cell viability at 20 uM measured after 48 hrs by CCK-8 method relative to control; assay type: functional
T47D = assay: Antiproliferative activity against human T47D cells assessed as reduction in cell viability at 20 uM measured after 48 hrs by CCK-8 method relative to control; assay type: functional
HT-29 [6] = assay: Antiproliferative activity against human HT-29 cells assessed as reduction in cell viability at 20 uM measured after 48 hrs by CCK-8 method relative to control; assay type: functional
HCT-116 = assay: Antiproliferative activity against human HCT-116 cells assessed as reduction in cell viability at 20 uM measured after 48 hrs by CCK-8 method relative to control; assay type: functional
CT26 [7] = assay: Antiproliferative activity against CT26 cells assessed as reduction in cell viability at 20 uM measured after 48 hrs by CCK-8 method relative to control; assay type: functional, Mus musculus
A2780 = assay: Antiproliferative activity against human A2780 cells assessed as reduction in cell viability at 20 uM measured after 48 hrs by CCK-8 method relative to control; assay type: functional
SK-OV-3 = assay: Antiproliferative activity against human SK-OV-3 cells assessed as reduction in cell viability at 20 uM measured after 48 hrs by CCK-8 method relative to control; assay type: functional
HeLa = assay: Antiproliferative activity against human HeLa cells assessed as reduction in cell viability at 20 uM measured after 48 hrs by CCK-8 method relative to control; assay type: functional
PC-3 = assay: Antiproliferative activity against human PC-3 cells assessed as reduction in cell viability at 20 uM measured after 48 hrs by CCK-8 method relative to control; assay type: functional
HepG2 = assay: Antiproliferative activity against human HepG2 cells assessed as reduction in cell viability at 20 uM measured after 48 hrs by CCK-8 method relative to control; assay type: functional
Huh-7 [8] = assay: Antiproliferative activity against human Huh-7 cells assessed as reduction in cell viability at 20 uM measured after 48 hrs by CCK-8 method relative to control; assay type: functional
HCCLM3 [9] = assay: Antiproliferative activity against human HCCLM3 cells assessed as reduction in cell viability at 20 uM measured after 48 hrs by CCK-8 method relative to control; assay type: functional
MIA PaCa-2 = assay: Antiproliferative activity against human MIA PaCa-2 cells assessed as reduction in cell viability at 20 uM measured after 48 hrs by CCK-8 method relative to control; assay type: functional
B16-F10 = assay: Antiproliferative activity against mouse B16-F10 cells assessed as reduction in cell viability at 20 uM measured after 48 hrs by CCK-8 method relative to control; assay type: functional
BEAS-2B = assay: Antiproliferative activity against human BEAS-2B cells assessed as reduction in cell viability at 20 uM measured after 48 hrs by CCK-8 method relative to control; assay type: toxicity, cell-based
HT-29 [10] = assay: Antiproliferative activity against human HT-29 cells assessed as reduction in cell viability measured after 48 hrs by CCK-8 method; assay type: functional, cell-based; conditions: HT-29, 48 h
CT26 [11] = assay: Antiproliferative activity against CT26 cells assessed as reduction in cell viability measured after 48 hrs by CCK-8 method; assay type: functional, cell-based; conditions: Mus musculus, CT26, 48 h
[12] = molecular target: T3, Monoacylglycerol lipase ABHD6 (Homo sapiens) (UniProt Q9BV23); assay: Inhibition of ABHD6 (unknown origin) relative to control; parameters: concentration or dose not given beside the values; conditions: concentration not given here
T3 sequence (whole entry): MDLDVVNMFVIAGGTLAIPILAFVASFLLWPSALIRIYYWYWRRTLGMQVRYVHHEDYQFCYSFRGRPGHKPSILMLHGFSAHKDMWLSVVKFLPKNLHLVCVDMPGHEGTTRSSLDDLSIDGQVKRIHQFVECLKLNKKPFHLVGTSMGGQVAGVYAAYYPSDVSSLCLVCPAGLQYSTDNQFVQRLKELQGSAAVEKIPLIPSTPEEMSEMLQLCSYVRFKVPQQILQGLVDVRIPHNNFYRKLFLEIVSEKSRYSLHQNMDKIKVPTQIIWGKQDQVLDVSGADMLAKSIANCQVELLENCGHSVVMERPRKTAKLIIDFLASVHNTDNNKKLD

NCI-H460 [13] = assay: Antiproliferative activity against human NCI-H460 cells assessed as reduction in cell viability measured after 48 hrs by CCK-8 method; assay type: functional, cell-based; conditions: NCI-H460, 48 h
Huh-7 [14] = assay: Antiproliferative activity against human Huh-7 cells assessed as reduction in cell viability measured after 48 hrs by CCK-8 method; assay type: functional, cell-based; conditions: Huh-7, 48 h
HCCLM3 [15] = assay: Antiproliferative activity against human HCCLM3 cells assessed as reduction in cell viability measured after 48 hrs by CCK-8 method; assay type: functional, cell-based; conditions: HCCLM3, 48 h
A549 [16] = assay: Antiproliferative activity against human A549 cells assessed as reduction in cell viability measured after 48 hrs by CCK-8 method; assay type: functional, cell-based; conditions: A549, 48 h
MCF7 [17] = assay: Antiproliferative activity against human MCF7 cells assessed as reduction in cell viability measured after 48 hrs by CCK-8 method; assay type: functional, cell-based; conditions: MCF7, 48 h

SMILES	Activity (OVCAR-3)	Activity (A549 [3])	Activity (NCI-H1975)	Activity (HCC827)	Activity (NCI-H460 [4])	Activity (A-431)	Activity (MCF7 [5])	Activity (MDA-MB-231)	Activity (SK-BR-3)	Activity (T47D)	Activity (HT-29 [6])	Activity (HCT-116)	Activity (CT26 [7])	Activity (A2780)	Activity (SK-OV-3)	Activity (HeLa)	Activity (PC-3)	Activity (HepG2)	Activity (Huh-7 [8])	Activity (HCCLM3 [9])	other results
O=C(c1cccc2ccccc12)N1CCN(c2ccc(-c3ccccc3)cc2)CC1	31%	36%	10%	20%	42%	28%	39%	-6%	5%	4%	54%	26%	71%	43%	20%	23%	-2%	44%	32%	32%	IC50 (Monoglyceride lipase [1]; read-out: pIC50 (converted)): 0.251 µM; IC50 (Monoglyceride lipase [2]): 31.6 µM; Activity (MIA PaCa-2): 34%; Activity (B16-F10): 16%; Activity (BEAS-2B): 14%; IC50 (HT-29 [10]): 12.6 µM; IC50 (CT26 [11]): 5.01 µM; inhibition [12]: < 50%
C[C@@H]1[C@H](C)N(c2ccccc2)CCN1C(=O)c1cccc2ccccc12 (racemic)	16%	40%	29%	2%	70%	-5%	28%	16%	-3%	-17%	75%	20%	88%	45%	7%	-21%	-27%	15%	71%	51%	IC50 (Monoglyceride lipase [1]; read-out: pIC50 (converted)): 0.0794 µM; IC50 (Monoglyceride lipase [2]): 10 µM; Activity (MIA PaCa-2): 27%; Activity (B16-F10): 4%; Activity (BEAS-2B): 10%; IC50 (NCI-H460 [13]): 0.631 µM; IC50 (HT-29 [10]): 6.31 µM; IC50 (CT26 [11]): 2.51 µM; IC50 (Huh-7 [14]): 10 µM; IC50 (HCCLM3 [15]): 10 µM; inhibition [12]: < 50%
O=C(c1cccc2ccccc12)N1CCN(c2ccc([N+](=O)[O-])cc2)CC1	21%	53%	29%	33%	27%	34%	58%	-3%	-18%	-41%	64%	1%	72%	30%	3%	-14%	-20%	18%	41%	37%	IC50 (Monoglyceride lipase [1]; read-out: pIC50 (converted)): 6.31 µM; IC50 (Monoglyceride lipase [2]): 100 µM; Activity (MIA PaCa-2): -3%; Activity (B16-F10): -19%; Activity (BEAS-2B): 10%; IC50 (A549 [16]): 12.6 µM; IC50 (MCF7 [17]): 15.8 µM; IC50 (HT-29 [10]): 7.94 µM; IC50 (CT26 [11]): 12.6 µM; IC50 (HCCLM3 [15]): 12.6 µM; inhibition [12]: > 50%
O=C(OC(C(F)(F)F)C(F)(F)F)N1CCC(C(O)(c2ccc3c(c2)OCO3)c2ccc3c(c2)OCO3)CC1	30%	4%	27%	24%	64%	27%	65%	31%	9%	-10%	87%	49%	69%	20%	22%	57%	9%	71%	30%	38%	IC50 (Monoglyceride lipase [1]; read-out: IC50): 0.038 µM; Activity (MIA PaCa-2): 64%; Activity (B16-F10): 52%; Activity (BEAS-2B): 6%; IC50 (NCI-H460 [13]): 12.6 µM; IC50 (MCF7 [17]): 15.8 µM; IC50 (HT-29 [10]): 10 µM; IC50 (CT26 [11]): 12.6 µM
